Reference: patent US20120138290A1, “METHODS TO STIMULATE BIOGENIC METHANE PRODUCTION FROM HYDROCARBON-BEARING FORMATIONS” (SYNTHETIC GENOMICS, INC., priority 2010, published 2012)
Values joined by “and” are separate entries in the source; they are usually repeats but may differ in a detail not shown here. Identical values can stand only once. Like-named read-outs stand apart in the source and are kept apart here.

System: functional microbial subcommunity (inoculum 2L-245 from upflow reactor)
Assay: Stimulation of methane production: batch cultures with additive/stimulant, with or without coal, headspace methane by gas chromatography
Type: cell-based
Description: The availability of an inoculum of a functional microbial subcommunity capable of producing methane from coal in vitro prompted laboratory experiments where various stimulants were tested for their effect on methane production. […] The experiments were conducted at three different levels of additives (0.5×, 1× and 2×): additives (stimulants) were added in the following three concentrations. […] DMY media: DM media composition in milli-Q water is made as described above with the addition of 0.5 g/L yeast extract. DMSC media: DM media in milli-Q water is made as described above with the addition of 100 g/L sterile, anaerobic, sub-bituminous coal from the San Juan Basin. DMSCY media: DM media in milli-Q water is made as described above with the addition of 100 g/L sterile, anaerobic, sub-bituminous coal from the San Juan Basin and 0.5 g/L yeast extract. The coal used in these experiments originated from the San Juan Basin (BHP Billiton, Tex.). […] Each stimulant was tested in the presence or absence of coal. The experiments were conducted at three different concentrations of additives (0.5× (low), 1× (medium), and 2× (high)) as described above. Each sample type was conducted in 4 replicates. […] Control sample types were media alone, media plus coal, media plus yeast extract and media plus coal and yeast extract. At each time point, headspace measurements were taken using gas chromatography (microGC […], Agilent Technologies, Inc.). […] Each experiment was performed in quadruplicate. Methane at time 0 was assumed to be 0%.

[1] = DMSCY (coal), 2.0 mM KCl, week 1
[2] = DMSCY (coal), 2.0 mM KCl, week 3
[3] = DMSCY (coal), 2.0 mM KCl, week 5
[4] = DMSCY (coal), 4.0 mM KCl, week 1
[5] = DMSCY (coal), 4.0 mM KCl, week 3
[6] = DMSCY (coal), 4.0 mM KCl, week 5
[7] = DMSCY (coal), 8.0 mM KCl, week 1
[8] = DMSCY (coal), 8.0 mM KCl, week 3
[9] = DMSCY (coal), 8.0 mM KCl, week 5
[10] = DMY (no coal), 2.0 mM KCl, week 1
[11] = DMY (no coal), 2.0 mM KCl, week 3
[12] = DMY (no coal), 2.0 mM KCl, week 5
[13] = DMY (no coal), 4.0 mM KCl, week 1
[14] = DMY (no coal), 4.0 mM KCl, week 3
[15] = DMY (no coal), 4.0 mM KCl, week 5
[16] = DMY (no coal), 8.0 mM KCl, week 1
[17] = DMY (no coal), 8.0 mM KCl, week 3
[18] = DMY (no coal), 8.0 mM KCl, week 5
[19] = DMSCY (coal), 5 mM NH4Cl, week 1
[20] = DMSCY (coal), 5 mM NH4Cl, week 3
[21] = DMSCY (coal), 5 mM NH4Cl, week 5
[22] = DMSCY (coal), 10 mM NH4Cl, week 1
[23] = DMSCY (coal), 10 mM NH4Cl, week 3
[24] = DMSCY (coal), 10 mM NH4Cl, week 5
[25] = DMSCY (coal), 20 mM NH4Cl, week 1
[26] = DMSCY (coal), 20 mM NH4Cl, week 5
[27] = DMY (no coal), 5 mM NH4Cl, week 1
[28] = DMY (no coal), 5 mM NH4Cl, week 3
[29] = DMY (no coal), 5 mM NH4Cl, week 5
[30] = DMY (no coal), 10 mM NH4Cl, week 1
[31] = DMY (no coal), 20 mM NH4Cl, week 1
[32] = DMY (no coal), 20 mM NH4Cl, week 3
[33] = DMY (no coal), 20 mM NH4Cl, week 5
[34] = DMSCY (coal), 5.0 μM Na2MoO4, week 1
[35] = DMSCY (coal), 5.0 μM Na2MoO4, week 3
[36] = DMSCY (coal), 5.0 μM Na2MoO4, week 5
[37] = DMSCY (coal), 10 μM Na2MoO4, week 1
[38] = DMSCY (coal), 10 μM Na2MoO4, week 3
[39] = DMSCY (coal), 10 μM Na2MoO4, week 5
[40] = DMY (no coal), 5.0 μM Na2MoO4, week 1
[41] = DMY (no coal), 5.0 μM Na2MoO4, week 3
[42] = DMY (no coal), 5.0 μM Na2MoO4, week 5
[43] = DMY (no coal), 10 μM Na2MoO4, week 1
[44] = DMY (no coal), 10 μM Na2MoO4, week 3
[45] = DMY (no coal), 10 μM Na2MoO4, week 5

## [Cl-].[K+] [KCl, potassium chloride]
[1]
  methane production (Average): 0.34
  methane production (RepA-Rep D): 0.35 and 0.30 and 0.32 and 0.39
[2]
  methane production (Average): 1.14
  methane production (RepA-Rep D): 1.12 and 1.25 and 1.04 and 1.16
[3]
  methane production (Average): 1.39
  methane production (RepA-Rep D): 1.32 and 1.49 and 1.30 and 1.47
[4]
  methane production (Average): 0.4
  methane production (RepA-Rep D): 0.44 and 0.43 and 0.46
[5]
  methane production (Average): 1.50
  methane production (RepA-Rep D): 1.35 and 1.46 and 1.60 and 1.57
[6]
  methane production (Average): 1.69
  methane production (RepA-Rep D): 1.59 and 1.87 and 1.70
[7]
  methane production (Average): 0.3936
  methane production (RepA-Rep D): 0.3871 and 0.3364 and 0.4219 and 0.429
[8]
  methane production (Average): 1.327
  methane production (RepA-Rep D): 1.346 and 1.301 and 1.36 and 1.304
[9]
  methane production (Average): 1.562
  methane production (RepA-Rep D): 1.564 and 1.478 and 1.557 and 1.649
[10]
  methane production (Average): 0.30
  methane production (RepA-Rep D): 0.29 and 0.30 and 0.32
[11]
  methane production (Average): 0.81
  methane production (RepA-Rep D): 0.99 and 0.79 and 0.78 and 0.70
[12]
  methane production (Average): 0.77
  methane production (RepA-Rep D): 0.78 and 0.75 and 0.79
[13]
  methane production (Average): 0.23
  methane production (RepA-Rep D): 0.23 and 0.22 and 0.24
[14]
  methane production (Average): 0.26
  methane production (RepA-Rep D): 0.24 and 0.26 and 0.29
[15]
  methane production (Average): 0.29
  methane production (RepA-Rep D): 0.23 and 0.26 and 0.40
[16]
  methane production (Average): 0.2015
  methane production (RepA-Rep D): 0.2005 and 0.2037 and 0.195 and 0.2068
[17]
  methane production (Average): 0.2178
  methane production (RepA-Rep D): 0.2211 and 0.2119 and 0.2206 and 0.2177
[18]
  methane production (Average): 0.2151
  methane production (RepA-Rep D): 0.2177 and 0.2082 and 0.2231 and 0.2112
Absence of coal (DMY), >2 mM KCl
  effect on methanogenesis: greatly decreased methanogenesis
Week 5, KCl-containing samples
  trend in methane production: decreasing trend

## Cl.N [NH4Cl, ammonium chloride]
[19]
  methane production (Average): 0.31
  methane production (RepA-Rep D): 0.35 and 0.27 and 0.31 and 0.30
[20]
  methane production (Average): 1.11
  methane production (RepA-Rep D): 1.24 and 1.03 and 1.13
[21]
  methane production (Average): 1.50
  methane production (RepA-Rep D): 1.67 and 1.41 and 1.48 and 1.43
[22]
  methane production (Average): 0.25
  methane production (RepA-Rep D): 0.25 and 0.22 and 0.28
[23]
  methane production (Average): 1.30
  methane production (RepA-Rep D): 1.22 and 1.43 and 1.41 and 1.14
[24]
  methane production (Average): 2.22
  methane production (RepA-Rep D): 1.98 and 2.70 and 2.67 and 1.54
[25]
  methane production (Average): 0.22
  methane production (RepA-Rep D): 0.24 and 0.22 and 0.21
DMSCY (coal), 20 mM NH4Cl, week 3
  methane production (Average): 1.18
[26]
  methane production (Average): 1.46
  methane production (RepA-Rep D): 1.63 and 1.48 and 1.37 and 1.36
[27]
  methane production (Average): 0.26
  methane production (RepA-Rep D): 0.26 and 0.27
[28]
  methane production (Average): 0.71
  methane production (RepA-Rep D): 0.74 and 0.68 and 0.67
[29]
  methane production (Average): 0.66
  methane production (RepA-Rep D): 0.69 and 0.65 and 0.62
[30]
  methane production (Average): 0.20
  methane production (RepA-Rep D): 0.22 and 0.21 and 0.15
DMY (no coal), 10 mM NH4Cl, week 3
  methane production (Average): 0.57
DMY (no coal), 10 mM NH4Cl, week 5
  methane production (Average): 0.58
[31]
  methane production (Average): 0.22
  methane production (RepA-Rep D): 0.23 and 0.22 and 0.21
[32]
  methane production (Average): 0.77
  methane production (RepA-Rep D): 0.80 and 0.78 and 0.76
[33]
  methane production (Average): 0.78
  methane production (RepA-Rep D): 0.80 and 0.79 and 0.76 and 0.77
Intermediate concentration of the stimulant (FIGS. 1A, 1B, 2A)
  effect on the production of methane: statistically significant positive effect
With or without coal
  dependence of methane production on coal: only observed in presence of coal

## [Na+].[Na+].[O]=[Mo](=[O])([O-])[O-] [Na2MoO4, sodium molybdic]
[34]
  methane production (Average): 0.34
  methane production (RepA-Rep D): 0.39 and 0.28 and 0.31
[35]
  methane production (Average): 1.19
  methane production (RepA-Rep D): 1.13 and 1.09 and 1.14 and 1.40
[36]
  methane production (Average): 1.41
  methane production (RepA-Rep D): 1.39 and 1.31 and 1.29 and 1.63
[37]
  methane production (Average): 0.44
  methane production (RepA-Rep D): 0.43 and 0.47 and 0.44
[38]
  methane production (Average): 1.10
  methane production (RepA-Rep D): 1.03 and 1.15 and 1.14 and 1.07
[39]
  methane production (Average): 1.13
  methane production (RepA-Rep D): 1.11 and 1.14 and 1.15 and 1.13
[40]
  methane production (Average): 0.29
  methane production (RepA-Rep D): 0.25 and 0.27 and 0.30 and 0.33
[41]
  methane production (Average): 0.83
  methane production (RepA-Rep D): 0.77 and 0.85 and 0.79 and 0.91
[42]
  methane production (Average): 0.79
  methane production (RepA-Rep D): 0.76 and 0.78 and 0.74 and 0.87
[43]
  methane production (Average): 0.29
  methane production (RepA-Rep D): 0.30 and 0.26 and 0.32
[44]
  methane production (Average): 0.82
  methane production (RepA-Rep D): 0.85 and 0.71 and 0.81 and 0.90
[45]
  methane production (Average): 0.77
  methane production (RepA-Rep D): 0.77 and 0.72 and 0.74 and 0.83
FIG. 3B
  correlation of methane production with molybdate added to the cultures: negative correlation
molybdate, P=0.063
  difference of effects with or without coal: not statistically significantly different

## O=S([O-])([O-])=S.[Na+].[Na+] [Na2S2O3, sodium thiosulfate]
  dependence of methane production on coal: only observed in the presence of coal
  effect on the production of methane: statistically significant positive effect
